# Calls of active or inactive are those of the source. No cut-off for these calls is given here.
# Columns and labels:
# [1] = system: Cryptococcus deneoformans; test: Antifungal activity against Cryptococcus neoformans var. neoformans after 48 hr by broth microdilution method; format: functional; conditions: for MIC50: Cryptococcus deneoformans, 48 h
# [2] = system: Cryptococcus gattii species complex; test: Antifungal activity against Cryptococcus gattii after 48 hr by broth microdilution method; format: functional, Cryptococcus bacillisporus; conditions: for MIC50: Cryptococcus gattii species complex, 48 h
Compound,MFC>99 [1] [µg/mL],MIC50 [1] [µg/mL],MIC50 [2] [µg/mL],MFC>99 [2] [µg/mL],Activity [1],Activity ([2]; Cryptococcus bacillisporus)
COC(=O)COc1ccccc1OC,>64,0.5,128,,,
COc1cc(C)ccc1OCC(=O)Oc1ccc(Cl)cc1,0.25,0.25,0.5,0.5,,
OC(Cn1cncn1)(Cn1cncn1)c1ccc(F)cc1F [FLUCONAZOLE],,4,4,,,
CCCOC(=O)COc1cccc(OC)c1,>64,0.5,64,,,
CCC(C)n1ncn(-c2ccc(N3CCN(c4ccc(OCC5COC(Cn6cncn6)(c6ccc(Cl)cc6Cl)O5)cc4)CC3)cc2)c1=O (stereo not given) [ITRACONAZOLE],,0.03,0.03,,,
CCCOC(=O)COc1ccc(C)cc1OC,,2,0.25,,Active,Active
C[C@@H]1[C@H](O)[C@@H](C)/C=C/C=C/C=C/C=C/C=C/C=C/C=C/[C@H](O[C@@H]2O[C@H](C)[C@@H](O)[C@H](N)[C@@H]2O)C[C@@H]2O[C@](O)(C[C@@H](O)C[C@@H](O)[C@H](O)CC[C@@H](O)C[C@@H](O)CC(=O)O[C@H]1C)C[C@H](O)[C@H]2C(=O)O [AMPHOTERICIN B],,0.12,0.12,,,
CC[C@H](C)C[C@H](C)CCCCCCCCC(=O)N[C@H]1C[C@@H](O)[C@@H](NCCN)NC(=O)[C@@H]2[C@@H](O)CCN2C(=O)[C@H]([C@H](O)CCN)NC(=O)[C@H]([C@H](O)[C@@H](O)c2ccc(O)cc2)NC(=O)[C@@H]2C[C@@H](O)CN2C(=O)[C@H]([C@@H](C)O)NC1=O [CASPOFUNGIN],,8,16,,,
Cc1ccc(OCC(=O)OC(C)C)cc1 [ISOPROPYL 4-METHYLPHENOXYACETATE],>64,8,128,,,
COc1cc(C)ccc1OCC(=O)OC(C)C,,64,0.25,0.25,,
CCCCCOC(=O)COc1ccc(C)cc1OC,,32,0.5,0.5,,
CC(=O)N1CCN(c2ccc(OCC3COC(Cn4ccnc4)(c4ccc(Cl)cc4Cl)O3)cc2)CC1 (stereo not given) [KETOCONAZOLE],,0.12,0.06,,,
CCCCCOC(=O)COc1ccccc1 [N-AMYL PHENOXYACETATE],64,16,2,2,,
CCCCCOC(=O)COc1ccccc1OC,>64,16,64,,,

# From ChEMBL document CHEMBL3045007, “Aryloxyacetic esters structurally related to -Asarone as potential antifungal agents” (2010)
